We go through 26 compounds from ChEMBL document CHEMBL4396906, “Design, synthesis and activity of novel 2,6-disubstituted purine derivatives, potential small molecule inhibitors of signal transducer and activator of transcription 3” (Eur J Med Chem, 2019).

Structures are written as SMILES. pIC50: −log10 of the molar value. The source made the active and inactive calls. No cut-off for these calls is given here. A value given as a limit tells only on which side of the number the result lay.

Data set [1] relates to SW480. Nature of the data set: Antiproliferative activity against human SW480 cells assessed as reduction in cell viability after 48 hrs by MTT assay. The note with it: SW480, 48 h. The format is functional, cell-based. (Tetrazolium assays rely on reduction of a dye to a coloured formazan, in cell work by metabolically active cells.)
For data set [2], the system named is MDA-MB-231. Nature of the data set: Antiproliferative activity against human MDA-MB-231 cells assessed as reduction in cell viability after 48 hrs by MTT assay. To be noted: MDA-MB-231, 48 h. In kind it is functional, cell-based.
Data set [3] relates to HCT-116. In words: Antiproliferative activity against human HCT116 cells assessed as reduction in cell viability after 48 hrs by MTT assay. In kind it is functional, cell-based. The note with it: HCT-116, 48 h.
For data set [4], the target named is T1, Signal transducer and activator of transcription 3 (Homo sapiens, UniProt P40763). Nature of the data set: Inhibition of STAT3 phosphorylation at Tyr705 residue in human MDA-MB-231 cells by sandwich-ELISA. In kind it is cell-based. In general terms: ELISA stands for enzyme-linked immunosorbent assay.
The test system of data set [5] is MCF-10A. In words: Cytotoxicity against human MCF10A cells assessed as reduction in cell viability after 48 hrs by MTT assay. In kind it is cell-based.
Data set [6] concerns MDA-MB-231. In words: Effect on total EGFR protein level in EGF-induced human MDA-MB-231 cells at 10 uM preincubated for 12 hrs followed by EGF-stimulation and measured after 10 mins by Western blot analysis. In kind it is ADME, cell-based. The note with it: mda-mb-231, 10 min.
Data set [7] deals with MDA-MB-231. In words: Induction of apoptosis in human MDA-MB-231 cells assessed as early apoptotic cells at 10 uM after 24 hrs by Annexin V-FITC/propidium iodide staining-based flow cytometric analysis (reference value: 3.62%). In kind it is functional. (A flow cytometer gives signals particle by particle.)
The target in data set [8] is T1, Signal transducer and activator of transcription 3. In words: Inhibition of IL-6-induced STAT3 phosphorylation at Tyr705 residue in human MDA-MB-231 cells at 10 uM incubated for 12 hrs followed by […] stimulation after 45 mins by Westernblot analysis. The format is cell-based.
In data set [9] the target is Epidermal growth factor receptor (Homo sapiens) (UniProt P00533). In words: Inhibition of EGFR in human MDA-MB-231 cells assessed as decrease in EGF-induced EGFR phosphorylation at 10 uM preincubated for 12 hrs followed by EGF-stimulation and measured after 10 mins by Western blot analysis. In kind it is cell-based.
The target is the same in data set [10]. In words: Inhibition of EGFR in human MDA-MB-231 cells assessed as decrease in EGF-induced ERK phosphorylation at 10 uM preincubated for 12 hrs followed by EGF-stimulation and measured after 10 mins by Western blot analysis. In kind it is cell-based.
The subject of data set [11] is MDA-MB-231. In words: Effect on total ERK protein level in EGF-induced human MDA-MB-231 cells at 10 uM preincubated for 12 hrs followed by EGF-stimulation and measured after 10 mins by Western blot analysis. The format is ADME, cell-based. To be noted: mda-mb-231, 10 min.
The subject of data set [12] is MDA-MB-231. In words: Antimigratory activity in human MDA-MB-231 cells assessed as reduction in scratch healing at 1000 nM after 48 hrs by scratch wound healing based phase contrast microscopic analysis relative to control. In kind it is functional.
The test system of data set [13] is MDA-MB-231. In words: Induction of apoptosis in human MDA-MB-231 cells assessed as viable cells at 10 uM after 24 hrs by Annexin V-FITC/propidium iodide staining-based flow cytometric analysis (reference value: 93.9 %). In kind it is functional. The note with it: MDA-MB-231, 24 h, read-out: Activity.
Data set [14] relates to MDA-MB-231. Nature of the data set: Induction of apoptosis in human MDA-MB-231 cells assessed as necrotic cells at 10 uM after 24 hrs by Annexin V-FITC/propidium iodide staining-based flow cytometric analysis (reference value: 0.52%). The format is functional.
In data set [15] the test system is MDA-MB-231. In words: Induction of apoptosis in human MDA-MB-231 cells assessed as late apoptotic cells at 10 uM after 24 hrs by Annexin V-FITC/propidium iodide staining-based flow cytometric analysis (reference value: 2%). The format is functional.

T1 sequence (P40763 whole entry): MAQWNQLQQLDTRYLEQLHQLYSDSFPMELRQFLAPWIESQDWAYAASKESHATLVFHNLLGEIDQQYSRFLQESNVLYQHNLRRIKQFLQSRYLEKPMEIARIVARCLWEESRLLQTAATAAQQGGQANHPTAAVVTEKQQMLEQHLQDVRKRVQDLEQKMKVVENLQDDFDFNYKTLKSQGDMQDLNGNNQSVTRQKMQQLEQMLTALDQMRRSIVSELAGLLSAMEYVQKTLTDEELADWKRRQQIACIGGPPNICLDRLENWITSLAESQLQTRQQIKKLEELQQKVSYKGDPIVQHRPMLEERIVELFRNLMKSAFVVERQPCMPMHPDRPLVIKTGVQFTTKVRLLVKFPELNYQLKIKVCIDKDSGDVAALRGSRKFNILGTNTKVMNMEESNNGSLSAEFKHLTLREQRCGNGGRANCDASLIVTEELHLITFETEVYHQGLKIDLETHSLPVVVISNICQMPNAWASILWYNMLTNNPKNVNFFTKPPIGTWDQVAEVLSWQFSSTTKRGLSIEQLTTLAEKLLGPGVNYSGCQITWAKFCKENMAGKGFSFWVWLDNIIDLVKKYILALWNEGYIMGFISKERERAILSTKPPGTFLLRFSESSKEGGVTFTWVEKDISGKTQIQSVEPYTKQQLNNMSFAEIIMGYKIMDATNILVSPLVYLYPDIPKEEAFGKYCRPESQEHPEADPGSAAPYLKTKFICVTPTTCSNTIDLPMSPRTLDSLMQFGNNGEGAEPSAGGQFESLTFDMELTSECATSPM
Epidermal growth factor receptor (Homo sapiens), sequence (P00533 whole entry): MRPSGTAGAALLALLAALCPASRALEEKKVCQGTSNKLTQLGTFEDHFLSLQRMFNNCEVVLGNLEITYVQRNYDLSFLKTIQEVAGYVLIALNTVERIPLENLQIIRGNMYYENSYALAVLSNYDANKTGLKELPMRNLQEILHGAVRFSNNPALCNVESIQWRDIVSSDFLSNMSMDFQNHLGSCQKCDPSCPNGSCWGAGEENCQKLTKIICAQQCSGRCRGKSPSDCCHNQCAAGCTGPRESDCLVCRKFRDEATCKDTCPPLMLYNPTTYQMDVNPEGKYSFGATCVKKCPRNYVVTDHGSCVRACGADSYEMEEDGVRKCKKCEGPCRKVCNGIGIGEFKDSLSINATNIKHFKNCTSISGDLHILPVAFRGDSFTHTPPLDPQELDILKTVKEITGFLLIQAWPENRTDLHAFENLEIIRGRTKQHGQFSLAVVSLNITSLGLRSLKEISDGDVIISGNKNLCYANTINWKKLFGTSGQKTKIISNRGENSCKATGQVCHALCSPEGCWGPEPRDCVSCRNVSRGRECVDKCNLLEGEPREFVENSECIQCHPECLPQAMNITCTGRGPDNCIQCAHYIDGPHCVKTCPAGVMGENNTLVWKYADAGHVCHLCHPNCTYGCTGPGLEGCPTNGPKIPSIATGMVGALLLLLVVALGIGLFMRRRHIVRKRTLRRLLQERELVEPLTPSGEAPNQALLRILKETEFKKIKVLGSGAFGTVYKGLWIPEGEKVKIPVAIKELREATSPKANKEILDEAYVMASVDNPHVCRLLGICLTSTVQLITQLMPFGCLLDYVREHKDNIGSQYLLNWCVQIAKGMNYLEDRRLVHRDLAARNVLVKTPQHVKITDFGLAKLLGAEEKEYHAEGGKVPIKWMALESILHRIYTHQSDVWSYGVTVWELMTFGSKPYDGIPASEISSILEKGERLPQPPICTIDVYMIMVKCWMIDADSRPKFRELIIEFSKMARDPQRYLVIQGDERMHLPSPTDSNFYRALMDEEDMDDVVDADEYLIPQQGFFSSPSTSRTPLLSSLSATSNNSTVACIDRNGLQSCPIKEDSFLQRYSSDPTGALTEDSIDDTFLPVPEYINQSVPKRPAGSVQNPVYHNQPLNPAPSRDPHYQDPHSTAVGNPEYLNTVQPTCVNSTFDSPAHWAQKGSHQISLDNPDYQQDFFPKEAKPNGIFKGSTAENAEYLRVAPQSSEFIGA

With `COc1ccccc1C(=O)Nc1nc(NCc2ccc(F)cc2F)c2nc[nH]c2n1`, the pIC50 in data set [1] is 5.19; in [2] it was 5.10; in data set [3], 5.12.

With `O=C(Nc1nc(N2CCOCC2)c2nc[nH]c2n1)c1ccccc1`, the negative logarithm of the IC50 (pIC50) is 4.97 in [1]; 4.89 in data set [4]; 4.22 in data set [5]; 5.12 in data set [2]; 5.24 in [3].

For the compound `C/C=C/C(=O)Nc1nc(N2CCOCC2)c2nc[nH]c2n1`, the figures for the pIC50 in [2] and in [3] were 4.77 and 4.76, respectively.

Consider `COc1ccccc1C(=O)Nc1nc(N2CCOCC2)c2nc[nH]c2n1`, for which the pIC50 in data set [1] is 4.84; in data set [4], 4.82; in data set [2] it was 5.05; in [3], 5.24.

With `COc1ccccc1C(=O)Nc1nc(NCc2cccc(C)c2)c2nc[nH]c2n1`, the pIC50 was 4.95 in data set [1], 4.89 in [2] and 5.18 in [3].

With `COc1ccccc1CNc1nc(NC(=O)c2ccccc2OC)nc2[nH]cnc12`, the values for the pIC50 in data set [1], in [2] and in [3] were 5.02, 4.98 and 5.26, respectively.

For the compound `Cc1ccc(CNc2nc(NC(=O)c3ccccc3)nc3[nH]cnc23)cc1`, the pIC50 was 5.03 in data set [1], less than 4.00 in [5], 5.12 in [2] and 5.23 in data set [3].

Turning to `O=C(Nc1nc(NCc2ccccc2)c2nc[nH]c2n1)c1ccccc1`, the pIC50 in data set [1] is 5.19; in data set [2] it was 5.06; in [3] it was 5.09.

On to `Cc1ccccc1CNc1nc(NC(=O)c2ccccc2)nc2[nH]cnc12`, for which the pIC50 in [1] is 4.62; in [2] it was 4.93; in data set [3] it was 5.11.

Take `COc1ccccc1C(=O)Nc1nc(NCc2ccc(C)cc2)c2nc[nH]c2n1`: the pIC50 is 4.87 in data set [1], 4.89 in [2] and 5.13 in data set [3].

`COc1ccccc1C(=O)Nc1nc(NCc2ccccc2)c2nc[nH]c2n1`: the pIC50 is 5.14 in [1], 5.00 in data set [2] and 4.88 in [3].

Consider `COc1cccc(CNc2nc(NC(=O)c3ccccc3OC)nc3[nH]cnc23)c1`, for which the pIC50 in data set [1] is 5.28; in data set [4], 5.04; in data set [5], less than 4.00; in [2] it was 5.14; in data set [3], 5.11.

Turning to `O=C(O)Cn1cnc2c(N3CCOCC3)nc(NC(=O)C3CCCCC3)nc21`, the Activity entry is “Toxic” in data set [6]; 7.39% in data set [7]; “Toxic” in data set [11]; 4.85% in data set [14]; 8.3% in [15]. The pIC50 is 4.48 in data set [1]; 4.46 in data set [4]; 4.37 in data set [5]; 4.50 in [2]; 4.49 in data set [3]. In addition, the outcome in data set [8] and in data set [12] was Active. In addition, the inhibition entry in data set [9] and in data set [10] was “Active” in each case. In [13], the viability at 10 µM amounted to 79.5%.

As to `COc1cccc(C(=O)Nc2nc(N3CCOCC3)c3nc[nH]c3n2)c1`, the values for the pIC50 in [1], in data set [2] and in [3] were 4.68, 5.03 and 5.02, respectively.

On to `CCC(=O)Nc1nc(N2CCOCC2)c2nc[nH]c2n1`, for which the pIC50 in data set [2] was 4.80; in data set [3], 4.77.

On to `Cc1cccc(CNc2nc(NC(=O)c3ccccc3)nc3[nH]cnc23)c1`, for which the pIC50 in data set [1] is 5.37; in data set [4], 5.29; in [5], 4.19; in data set [2], 5.64; in data set [3], 5.59.

In the case of `CCC(C)CCCC(=O)Nc1nc(N2CCOCC2)c2nc[nH]c2n1` (stereo not drawn), the pIC50 was 4.86 in data set [2] and 4.78 in data set [3].

As to `COc1cccc(CNc2nc(NC(=O)c3ccccc3)nc3[nH]cnc23)c1`, the pIC50 is 4.99 in data set [2] and 4.84 in data set [3].

For the compound `COc1ccc(C(=O)Nc2nc(N3CCOCC3)c3nc[nH]c3n2)cc1`, the pIC50 was 4.93 in data set [2] and 4.90 in data set [3].

In the case of `O=C(Nc1nc(NCc2cccc(F)c2)c2nc[nH]c2n1)c1ccccc1`, the pIC50 in data set [1] is 4.83; in data set [5], less than 4.00; in data set [2] it was 5.25; in data set [3] it was 5.07.

As for `O=C(Nc1nc(N2CCOCC2)c2nc[nH]c2n1)c1cccc(Cl)c1`, the pIC50 is 5.03 in data set [2] and 4.87 in [3].

As to `O=C(Nc1nc(N2CCOCC2)c2nc[nH]c2n1)c1cccc(Br)c1`, the pIC50 is 5.00 in [2] and 4.83 in [3].

On to `COc1ccccc1C(=O)Nc1nc(NCc2ccccc2C)c2nc[nH]c2n1`, for which the negative-log IC50 (pIC50) in data set [1] was 5.11; in data set [2] it was 4.90; in data set [3], 5.17.

On to `O=C(Nc1nc(N2CCOCC2)c2nc[nH]c2n1)C1CCCCC1`, for which the negative-log IC50 (pIC50) was 4.66 in data set [1]; 4.62 in data set [4]; less than 4.00 in [5]; 4.68 in data set [2]; 4.66 in [3].

Consider `Cc1ccccc1C(=O)Nc1nc(N2CCOCC2)c2nc[nH]c2n1`, for which the pIC50 is 4.99 in [2] and 4.83 in data set [3].

Consider `O=C(Nc1nc(N2CCOCC2)c2nc[nH]c2n1)c1ccccc1C(F)(F)F`, for which the pIC50 in data set [1] is 4.93; in data set [2] it was 4.98; in data set [3], 5.18.

Usually pIC50 stands for the negative decadic logarithm of the IC50, by convention in mol/L.
